EC50 data for 20 molecules are collected here from patent US20250368628A1, “METHODS AND COMPOUNDS FOR MODULATING INHERITED GENETIC DISEASES” (Design Therapeutics, Inc., priority 2022, published 2025).

Experiment [1] concerns Myotonic Dystrophy 1 affected patient fibroblasts (Coriel GM04602; 1600 CTG repeats). The experiment is described as follows: DM1 foci reduction assay (EC50 assay; CAG10-Cy3 FISH, foci per nucleus). It counts as cell-based. The gist of the method:
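GM04602 DM1 patient fibroblasts (1600 CTG repeats) seeded 24 h, then treated 48 h at 37 °C with an 8-point 1:3 dose series from 3 μM. Cells PFA-fixed, ethanol-permeabilized and hybridized overnight with 5 nM CAG10-Cy3 probe, DAPI counterstained. Imaged at 20×, 4 fields per well, as average foci per nucleus.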

The subject of a further experiment is F35T cells. The experiment is described as follows: Foci reduction in FECD (CAG10-Cy3 FISH, foci per nucleus). It counts as cell-based. The gist of the method:
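F35T cells, 5000 per well, were treated for 48 h at 37 °C, 5% CO2 in an 8-point dose response. Cells were then fixed in 4% PFA, permeabilized in 70% ethanol and hybridized overnight at 37 °C with a CAG10-Cy3 probe in 30% formamide/2×SSC. After DAPI staining, imaging gave foci per nucleus.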

The mark [2] stands for this setting: Homo sapiens, Fibroblast; DM1 patient fibroblasts, 48 h treatment, foci per nucleus; read-out: DM1 EC50, 48 h.
[3] abbreviates: F35T cells, 48 h treatment, foci per nucleus; read-out: FECD EC50, 48 h.
The mark [4] stands for this setting: Homo sapiens, Fibroblast; DM1 patient fibroblasts, foci per nucleus, 48 h treatment; read-out: DM1 EC50, 48 h.
[5] abbreviates: F35T cells, foci per nucleus, 48 h treatment; read-out: FECD EC50, 48 h.

pEC50: −log10 of the molar value. Where two headings read alike, the source gives them in different places.

By pEC50 is commonly meant −log10 of the EC50, conventionally taken in molar units. As to `COC(=O)c1ccc(C#CCNCCCNC(=O)c2nc(NC(=O)c3cc(NC(=O)CCNC(=O)c4nc(NC(=O)CCCNC(=O)c5cc(NC(=O)c6nc(NC(=O)CCNC(=O)c7cc(NC(=O)c8nccn8C)cn7C)cn6C)cn5C)cn4C)cn3C)cn2C)cc1` [Compound B-362], the pEC50 (in experiment [1] (setting [2]); in the experiment on F35T cells (setting [3])) was greater than 7.00 in each case.
As to `CC(=O)N1CCC(C#CC#CC2CCN(C(=O)CCNC(=O)c3nc(NC(=O)c4cc(NC(=O)CCNC(=O)c5nc(NC(=O)CCCNC(=O)c6cc(NC(=O)c7nc(NC(=O)CCNC(=O)c8cc(NC(=O)c9nccn9C)cn8C)cn7C)cn6CCN)cn5C)cn4C)cn3C)CC2)CC1` [Compound B-266], the pEC50 (in experiment [1] (setting [2]); with F35T cells (setting [3])) was greater than 7.00 throughout.
For `Cn1cc(NC(=O)c2nc(NC(=O)CCNC(=O)c3cc(NC(=O)c4nccn4C)cn3C)cn2C)cc1C(=O)NCCCC(=O)Nc1cn(C)c(C(=O)NCCC(=O)Nc2cc(C(=O)Nc3cn(C)c(C(=O)NCCC(=O)NC(CO)(CO)CO)n3)n(C)c2)n1` [Compound B-46], the pEC50 in experiment [1] (setting [2]) is 6.00 to 6.30; with F35T cells (setting [3]), 6.30 to 7.00.
With `CC(Nc1cc(C(=O)NCCC(=O)Nc2cn(C)c(C(=O)Nc3cc(C(=O)NCCCC(=O)Nc4cn(C)c(C(=O)NCCC(=O)Nc5cc(C(=O)Nc6cn(C)c(C(=O)NCCC(=O)NCCOCCOCCOCCOCCOCCN)n6)n(C)c5)n4)n(C)c3)n2)n(C)c1)c1nccn1C` (stereo not shown) [Compound B-77], the pEC50 (in experiment [1] (setting [2]); in the experiment with F35T cells (setting [3])) was 6.30 to 7.00 in each case.
For the molecule `Cn1cc(NC(=O)c2nc(NC(=O)CCNC(=O)c3cc(NC(=O)c4nccn4C)cn3C)cn2C)cc1C(=O)NCCCC(=O)Nc1cn(C)c(C(=O)NCCC(=O)Nc2cc(C(=O)Nc3cn(C)c(C(=O)NCCC(=O)N4CCNCC4)n3)n(C)c2)n1` [Compound B-49], the pEC50 (in experiment [1] (setting [2]); with F35T cells (setting [3])) was 6.30 to 7.00 throughout.
As to `CN(CCCNC(=O)c1cccc(C(=O)OC(C)(C)C)c1)CCCNC(=O)c1cc(NC(=O)CCNC(=O)c2nc(NC(=O)CCCNC(=O)c3cc(NC(=O)c4nc(NC(=O)CCNC(=O)c5cc(NC(=O)c6nccn6C)cn5C)cn4C)cn3CCCCCCN=[N+]=[N-])cn2C)cn1C` [Compound B-359], the pEC50 (in experiment [1] (setting [2]); in the experiment with F35T cells (setting [3])) was less than 6.00 throughout.
With `Cn1cc(NC(=O)c2nc(NC(=O)CCNC(=O)c3cc(NC(=O)c4nccn4C)cn3C)cn2C)cc1C(=O)NCCCC(=O)Nc1cn(C)c(C(=O)NCCC(=O)Nc2cc(C(=O)Nc3cn(C)c(C(=O)NCCC(=O)N4CCC(N5CCN(C(=O)OC(C)(C)C)CC5)CC4)n3)n(C)c2)n1` [Compound B-30], the pEC50 in experiment [1] (setting [2]) was 6.30 to 7.00; with F35T cells (setting [3]), greater than 7.00.
On to `Cn1cc(NC(=O)c2nccn2C)cc1C(=O)NCCC(=O)Nc1cn(C)c(C(=O)Nc2cc(C(=O)NC[C@H](N)CC(=O)Nc3cn(C)c(C(=O)NCCC(=O)Nc4cc(C(=O)Nc5cn(C)c(C(=O)NCCC(=O)N6CCCCC6)n5)n(C)c4)n3)n(C)c2)n1` [Compound B-418], for which the pEC50 in experiment [1] (setting [4]) is 6.30 to 7.00; with F35T cells (setting [5]), greater than 7.00.
For the molecule `CCOC(=O)c1nc(NC(=O)c2cc(NC(=O)CCNC(=O)c3nc(NC(=O)CCCNC(=O)c4cc(NC(=O)c5nc(NC(=O)CCNC(=O)c6cc(NC(=O)c7nccn7C)cn6C)cn5C)cn4CCCCCCn4cc(COCCOCCOCCOC)nn4)cn3C)cn2C)cn1C` [Compound B-374], the pEC50 (in experiment [1] (setting [2]); in the experiment with F35T cells (setting [3])) was less than 6.00 in each case.
As to `Cn1cc(NC(=O)c2nc(NC(=O)CCNC(=O)c3cc(NC(=O)c4nccn4C)cn3C)cn2C)cc1C(=O)NCCCC(=O)Nc1cn(C)c(C(=O)NCCC(=O)Nc2cc(C(=O)Nc3cn(C)c(C(=O)NCCC(=O)N4CCC(C#CC#CC5CCN(C(=O)c6cccc(C(=O)O)c6)CC5)CC4)n3)n(C)c2)n1` [Compound B-224], the pEC50 in experiment [1] (setting [2]) is less than 6.00; with F35T cells (setting [3]) it was 6.00 to 6.30.
Regarding `Cn1cc(NC(=O)c2nc(NC(=O)CCNC(=O)c3cc(NC(=O)c4nccn4C)cn3C)cn2C)cc1C(=O)NCCCC(=O)Nc1cn(C)c(C(=O)NCCC(=O)Nc2cc(C(=O)Nc3cn(C)c(C(=O)NCCC(=O)NCCOCCOCCOc4ccc(N)cc4)n3)n(C)c2)n1` [Compound B-14], the pEC50 (in experiment [1] (setting [2]); in the experiment with F35T cells (setting [3])) was 6.30 to 7.00 each time.
As to `Cn1cc(NC(=O)c2nc(NC(=O)CCNC(=O)c3cc(NC(=O)c4nccn4C)cn3C)cn2C)cc1C(=O)NCCCC(=O)Nc1cn(C)c(C(=O)NCCC(=O)Nc2cc(C(=O)Nc3cn(C)c(C(=O)NCCC(=O)NCCOCCOc4ccc(NC(=O)OCc5ccccc5)cc4)n3)n(C)c2)n1` [Compound B-15], the pEC50 (in experiment [1] (setting [2]); in the experiment on F35T cells (setting [3])) was greater than 7.00 throughout.
As for `CN1CCN(C(=O)CCNC(=O)c2nc(NC(=O)c3cc(NC(=O)CCNC(=O)c4nc(NC(=O)C[C@H](CNC(=O)c5cc(NC(=O)c6nc(NC(=O)CCNC(=O)c7cc(NC(=O)c8nccn8C)cn7C)cn6C)cn5C)NC(=O)c5ccccc5)cn4C)cn3C)cn2C)CC1` [Compound B-417], the pEC50 in experiment [1] (setting [4]) is 6.30 to 7.00; in the experiment with F35T cells (setting [5]), greater than 7.00.
Regarding `Cn1cc(NC(=O)c2nc(NC(=O)CCNC(=O)c3cc(NC(=O)c4nccn4C)cn3C)cn2C)cc1C(=O)NCCCC(=O)Nc1cn(C)c(C(=O)NCCC(=O)Nc2cc(C(=O)Nc3cn(C)c(C(=O)NCCC(=O)N4CC(c5cnc(CNC(=O)OCc6ccccc6)[nH]5)C4)n3)n(C)c2)n1` [Compound B-68], the pEC50 (in experiment [1] (setting [2]); with F35T cells (setting [3])) was 6.30 to 7.00 each time.
Consider `CC(=O)N1CCC(C#CC#CC2CCN(C(=O)CCNC(=O)c3nc(NC(=O)c4cc(NC(=O)CCNC(=O)c5nc(NC(=O)CCCNC(=O)c6cc(NC(=O)c7nc(NC(=O)CCNC(=O)c8cc(NC(=O)c9nccn9C)cn8C)cn7C)cn6CCCCN)cn5C)cn4C)cn3C)CC2)CC1` [Compound B-280], for which the pEC50 (in experiment [1] (setting [2]); in the experiment with F35T cells (setting [3])) was greater than 7.00 each time.
Turning to `Cn1cc(NC(=O)c2nc(NC(=O)CCNC(=O)c3cc(NC(=O)c4nccn4C)cn3C)cn2C)cc1C(=O)NCCCC(=O)Nc1cn(C)c(C(=O)NCCC(=O)Nc2cc(C(=O)Nc3cn(C)c(C(=O)NCCc4cnc(CNC(=O)OCc5ccccc5)[nH]4)n3)n(C)c2)n1` [Compound B-202], the figures for the pEC50 (in experiment [1] (setting [2]); with F35T cells (setting [3])) were 6.30 to 7.00 and greater than 7.00, respectively.
For `Cn1cc(NC(=O)c2nc(NC(=O)CCNC(=O)c3cc(NC(=O)c4nccn4C)cn3C)cn2C)cc1C(=O)NCCCC(=O)Nc1cn(C)c(C(=O)NCCC(=O)Nc2cc(C(=O)Nc3cn(C)c(C(=O)NCCC(=O)NCCOCCOCCOCCN4CCC(C#CC#CC5CCN(C(=O)OC(C)(C)C)CC5)CC4)n3)n(C)c2)n1` [Compound B-17], in that order: greater than 7.00 and greater than 7.00.
Taken in the same sequence, the figures for `CN(C)C(=O)CCNC(=O)c1nc(NC(=O)c2cc(NC(=O)CCNC(=O)c3nc(NC(=O)CCCNC(=O)c4cc(NC(=O)c5nc(NC(=O)CCNC(=O)c6cc(NC(=O)c7nccn7C)cn6C)cn5C)cn4C)cn3C)cn2C)cn1C` [Compound B-313] were greater than 7.00 and greater than 7.00.
Taken in the same sequence, the figures for `CC(=O)NCCCCCCn1cc(NC(=O)c2nc(NC(=O)CCNC(=O)c3cc(NC(=O)c4nccn4C)cn3C)cn2C)cc1C(=O)NCCCC(=O)Nc1cn(C)c(C(=O)NCCC(=O)Nc2cc(C(=O)Nc3cn(C)c(C(=O)NCCC(=O)N4CCC(C#CC#CC5CCN(C(C)=O)CC5)CC4)n3)n(C)c2)n1` [Compound B-293] were 6.00 to 6.30 and 6.30 to 7.00.
`CN(CCCC#Cc1cccc(C(=O)O)c1)CCCNC(=O)c1nc(NC(=O)c2cc(NC(=O)CCNC(=O)c3nc(NC(=O)CCCNC(=O)c4cc(NC(=O)c5nc(NC(=O)CCNC(=O)c6cc(NC(=O)c7nccn7C)cn6C)cn5C)cn4C)cn3C)cn2C)cn1C` [Compound B-263]: the pEC50 in experiment [1] (setting [2]) was 6.30 to 7.00; with F35T cells (setting [3]), greater than 7.00.
